The values that follow come from patent publication US4257941A, “Polycyclic nitrogen-containing compounds” (BASF Aktiengesellschaft, priority 1976, dated 1981).

Read-outs that look alike come from different tables or passages of the source.

The test system of one assay is Sinapis alba. In words: Herbicidal action (Example 25). Format: in vivo. The settings on record: read-out: percentage damage; for pest or weed control at 1000 g/ha: 1.0 kg/ha; for pest or weed control at 2000 g/ha: 2.0 kg/ha. The method, then: (§1) Paraffined paper cups having a volume of 170 cm^3 were filled with a sandy loam, and the seeds of the test plants sown therein, separated by species. (The species are also listed below.)
(§2) In the first group, treatment was effected immediately after sowing and before germination of the seeds (preemergence treatment=soil treatment). Shallow sown seeds not completely covered with soil came into contact with the active ingredients. In the second group, the plants were treated postemergence (=leaf treatment) at a growth height of from 2 to 8 cm, depending on the rate of growth and shape of the species concerned. The compounds were suspended or emulsified in water and applied with the aid of fine nozzles. The soil and plants were thoroughly sprinkler irrigated for the duration of the experiment. The cups were placed in the greenhouse and kept in the temperature range 12°-25° C. or 18°-35° C., depending on the temperature requirements of the various species. After 2 to 6 weeks the action was assessed visually on a 0 to 100 scale, 0 denoting no damage and 100 denoting plants not germinated or completely destroyed.

The next assay relates to Echinochloa crus galli. Briefly: Herbicidal action (Example 25). It is filed as in vivo. The method, then: as §1, §2
Another assay relates to Galium aparine. Briefly: Herbicidal action (Example 25). It is filed as in vivo. The settings on record: post-emergence, postemergence, 4.0 kg/ha, read-out: percentage damage. Here is the method: as §1, §2
A further assay deals with Alopecurus myosuroides. Briefly: Herbicidal action (Example 25). Format: in vivo. The settings on record: Alopecurus myosuroides, read-out: percentage damage; for pest or weed control at 1000 g/ha: 1.0 kg/ha; for pest or weed control at 2000 g/ha: 2.0 kg/ha; for pest or weed control at 4000 g/ha: 4.0 kg/ha; for pest or weed control at 8000 g/ha: 8.0 kg/ha. Here is the method: as §1, §2

Another assay concerns Euphorbia geniculata. Briefly: Growth-regulating action, preemergence, greenhouse (Example 35, Table 2). It is filed as in vivo. The following applies: for growth height relative: control 100. An excerpt:
(§3) The vessels used for the experiments were plastic pots having a volume of 1,130 cm^3 (Table A) or paraffined paper cups having a volume of 170 cm^3 (Table B). The pots and cups were filled with a sandy loam. The seeds of the test plants-separated by species-were sown shallow. Preemergence treatment (soil treatment) was effected immediately after sowing and before germination of the seeds. Seeds lying on the surface came into contact with the active ingredients. Postemergence treatment (leaf treatment) took place at an average growth height of the plants (depending on the rate of growth) of from 6 to 10 cm. The substances were suspended, emulsified or dissolved in water as diluent and applied by means of fine nozzles. The vessels were kept in the greenhouse in a temperature range of 12° C. to 25° C., and were regularly sprinkler irrigated for the duration of the experiment. The observation period was 6 to 8 weeks.
(§4) Further experiments were carried out in the greenhouse under the condition described in Example 11. […] As the plants which were examined liked the warmth (Eupghorbia geniculate, Arachis hypogaea, Cynodon dactylon), they were kept at from 20°-30° C. Cynodon dactylon from seed was cut once and the young growth treated postemergence.

The test system of a further assay is Cynodon dactylon. Briefly: Growth-regulating action, postemergence, greenhouse (Example 35, Table 1). Format: in vivo. The following applies: for growth height relative: control 100.
From the text: as §3, §4

In a further assay the test system is Arachis hypogaea. Described as above. The following applies: for growth height relative: control 100. It is filed as in vivo.
From the text: as §3, §4

The test system of another assay is Poa praetensis. Briefly: Growth height of individual grasses (Example 15). It is filed as in vivo. The settings on record: for Growth height: 3 weeks after treatment; for growth height relative: control 100. Set-up: key to plant color: ^+: plants a darker green. Here is the method: (§5) Under the same conditions as in Example 13 the two grasses Festuca rubra and Poa praetensis (both components of the lawn mixture used in Example 13) were grown in a neutral sandy loam. The growth height was measured 3 weeks after treatment with the active ingredients.

The subject of another assay is Festuca rubra. Briefly: Growth height of individual grasses (Example 15). It is filed as in vivo. The following applies: for Growth height: 3 weeks after treatment; for growth height relative: control 100. The method, then: as §5
In another assay the test system is sugar beet. In words: Yield and sugar content of sugar beet (Example 20). It is filed as in vivo, sugar beet (KAWpoly variety). The following applies: for Sugar content of lower stems rel. / Sugar content rel. / Yield rel.: control 100. Here is the method:
Sugar beets of the KAWpoly variety were grown in a neutral sandy loam in large pots. Fertilization with 1.5 g N as ammonium nitrate and 1 g P2 O5 as secondary potassium phosphate took place at the time of sowing. At a plant height of 16 to 18 cm the leaves were treated twice, once with 0.5 kg/ha and once with 1 kg/ha; in each case, 4 pots formed a variation of the experiment.

The next assay relates to tomatoes. Briefly: Action on tomatoes (Example 22). Format: in vivo. The following applies: leaf; for Plant height: 14 days; for Plant height relative: control 100. The method, then: Tomatoes were grown in the greenhouse in glass dishes 11.5 cm in diameter containing a peat substrate which was provided with an adequate supply of nutrients. The active ingredients were sprayed onto the leaves in conventional manner at a plant height of 9 to 12 cm.

Another assay deals with Datura stramonium. In words: Herbicidal action (Example 25). The settings on record: postemergence. Format: in vivo. The method, then:
as §1, §2

As for `COc1ccc(NC(=O)N(C)C)cc1Cl`, the pest or weed control at 1000 g/ha in the assay with Sinapis alba (post-emergence, postemergence) was determined as 100%; with Sinapis alba (pre-emergence, preemergence) it was 90%; in the assay on Alopecurus myosuroides (post-emergence, postemergence), 70%; in the assay on Alopecurus myosuroides (pre-emergence, preemergence) it was 0%. Besides, the pest or weed control at 2000 g/ha stood at 100% in the assay with Sinapis alba (post-emergence, postemergence); 90% with Sinapis alba (pre-emergence, preemergence); 70% in the assay with Alopecurus myosuroides (post-emergence, postemergence); 0% in the assay with Alopecurus myosuroides (pre-emergence, preemergence). Moreover, the percentage damage in the assay with Echinochloa crus galli (postemergence, 1.0 kg/ha) amounted to 100 percentage damage; in the assay with Echinochloa crus galli (postemergence, 2.0 kg/ha) it was 100 percentage damage; in the assay on Echinochloa crus galli (preemergence, 1.0 kg/ha), 80 percentage damage; in the assay with Echinochloa crus galli (preemergence, 2.0 kg/ha), 90 percentage damage. Further, the pest or weed control at 4000 g/ha in the assay on Galium aparine came to 50%.
Regarding `O=C(Nc1ccc(Cl)c(Cl)c1)C1CC1`, the pest or weed control at 1000 g/ha with Sinapis alba (post-emergence, postemergence) stood at 100%; in the assay with Sinapis alba (pre-emergence, preemergence), 60%; with Alopecurus myosuroides (post-emergence, postemergence), 80%; with Alopecurus myosuroides (pre-emergence, preemergence) it was 0%. Also, the pest or weed control at 2000 g/ha with Sinapis alba (post-emergence, postemergence) is 100%; in the assay on Sinapis alba (pre-emergence, preemergence) it was 60%; with Alopecurus myosuroides (post-emergence, postemergence), 30%; with Alopecurus myosuroides (pre-emergence, preemergence), 0%. The percentage damage is recorded as 100 percentage damage in the assay with Echinochloa crus galli (postemergence, 1.0 kg/ha); 100 percentage damage in the assay on Echinochloa crus galli (postemergence, 2.0 kg/ha); 80 percentage damage with Echinochloa crus galli (preemergence, 1.0 kg/ha); 90 percentage damage in the assay on Echinochloa crus galli (preemergence, 2.0 kg/ha). In addition, in the assay on Galium aparine, the pest or weed control at 4000 g/ha worked out at 0%.
Take `CCc1cccc(CC)c1N(COC)C(=O)CCl`: the pest or weed control at 1000 g/ha in the assay with Sinapis alba (post-emergence, postemergence) was 0%; in the assay with Sinapis alba (pre-emergence, preemergence), 0%; in the assay on Alopecurus myosuroides (post-emergence, postemergence), 40%; in the assay on Alopecurus myosuroides (pre-emergence, preemergence), 20%. Further, the pest or weed control at 2000 g/ha in the assay with Sinapis alba (post-emergence, postemergence) is 0%; in the assay on Sinapis alba (pre-emergence, preemergence), 0%; in the assay with Alopecurus myosuroides (post-emergence, postemergence) it was 50%; with Alopecurus myosuroides (pre-emergence, preemergence), 78%. The percentage damage with Echinochloa crus galli (postemergence, 1.0 kg/ha) is listed as 98 percentage damage; in the assay with Echinochloa crus galli (postemergence, 2.0 kg/ha), 98 percentage damage; in the assay with Echinochloa crus galli (preemergence, 1.0 kg/ha), 100 percentage damage; in the assay with Echinochloa crus galli (preemergence, 2.0 kg/ha), 100 percentage damage. Further, the pest or weed control at 4000 g/ha in the assay on Galium aparine came out at 0%.
`C[N+](C)(C)CCCl` [[ClCH2CH2N(CH3⊕)3]Cl⊖, reference compound]: the Growth height was 10 cm in the assay on Euphorbia geniculata (0.25 kg/ha); 10 cm in the assay on Euphorbia geniculata (0.5 kg/ha); 9 cm in the assay on Euphorbia geniculata (1.0 kg/ha); 9 cm in the assay on Cynodon dactylon (0.5 kg/ha); 9 cm with Cynodon dactylon (2.0 kg/ha); 16 cm in the assay on Arachis hypogaea (0.5 kg/ha). The Growth height in the assay on Arachis hypogaea (2.0 kg/ha) was determined as 14 cm. In addition, the growth height relative is reported as 91 with Euphorbia geniculata (0.25 kg/ha); 91 in the assay on Euphorbia geniculata (0.5 kg/ha); 82 with Euphorbia geniculata (1.0 kg/ha); 82 in the assay on Cynodon dactylon (0.5 kg/ha); 82 with Cynodon dactylon (2.0 kg/ha); 100 in the assay on Arachis hypogaea (0.5 kg/ha). In addition, the growth height relative in the assay on Arachis hypogaea (2.0 kg/ha) is on record as 87.
Turning to `Clc1ccc(N2N=NC3C4CC(C5N=NC45)C32)cc1` (stereo not drawn) [drawing 385], the Growth height is 20.0 cm in the assay on Poa praetensis (0.5 kg/ha); 20.0 cm with Poa praetensis (1.0 kg/ha); 15.5 cm in the assay on Poa praetensis (2.0 kg/ha); 27.0 cm in the assay on Festuca rubra (0.5 kg/ha); 25.5 cm with Festuca rubra (1.0 kg/ha); 23.5 cm with Festuca rubra (2.0 kg/ha). Further, the growth height relative with Poa praetensis (0.5 kg/ha) was determined as 88.9; in the assay with Poa praetensis (1.0 kg/ha), 88.9; in the assay on Poa praetensis (2.0 kg/ha) it was 68.9; in the assay on Festuca rubra (0.5 kg/ha) it was 98.2; with Festuca rubra (1.0 kg/ha) it was 92.7; in the assay on Festuca rubra (2.0 kg/ha) it was 85.5. Besides, the plant color entry in the assay on Poa praetensis (1.0 kg/ha) and with Poa praetensis (2.0 kg/ha) was “^+” in each case.
Turning to `Brc1ccc(N2N=NC3C4CC(C5N=NC45)C32)cc1` (stereo not drawn) [drawing 386], the Growth height in the assay on Poa praetensis (0.5 kg/ha) was determined as 19.0 cm; in the assay on Poa praetensis (1.0 kg/ha), 17.5 cm; in the assay on Poa praetensis (2.0 kg/ha), 14.0 cm; with Festuca rubra (0.5 kg/ha), 29.5 cm; with Festuca rubra (1.0 kg/ha), 27.5 cm; in the assay on Festuca rubra (2.0 kg/ha), 25.5 cm. In addition, the growth height relative came to 84.4 in the assay with Poa praetensis (0.5 kg/ha); 77.8 with Poa praetensis (1.0 kg/ha); 62.2 in the assay on Poa praetensis (2.0 kg/ha); 107.3 in the assay with Festuca rubra (0.5 kg/ha); 100.0 in the assay on Festuca rubra (1.0 kg/ha); 92.7 in the assay on Festuca rubra (2.0 kg/ha). Further, the plant color result in the assay on Poa praetensis (1.0 kg/ha) and in the assay on Poa praetensis (2.0 kg/ha) was “^+” each time.
As for `Brc1ccc(N2N=NC3C4CC(C5N=NC45)C32)cc1` (stereo not drawn) [drawing 400], in the assay with sugar beet (0.5 kg/ha), the Sugar content is on record as 51.0 % in dry substance, the “Sugar content of lower stems” value is recorded as 22.9 % in dry substance, the Yield is 13.04 g dry substance/vessel and the “Sugar content of lower stems rel.” value came to 100.9. In the assay on sugar beet (0.5 kg/ha), this molecule returned a Sugar content rel. of 101.4 and a Yield rel. of 107.4. Moreover, in the assay with sugar beet (1.0 kg/ha), the Sugar content stood at 52.2 % in dry substance, the “Sugar content of lower stems” value was 25.8 % in dry substance, the Yield was found to be 14.39 g dry substance/vessel and the “Sugar content of lower stems rel.” value turned out to be 113.6. Also, in the assay on sugar beet (1.0 kg/ha), the Sugar content rel. amounted to 103.8 and the Yield rel. was 118.5.
For `Clc1ccc(N2N=NC3C4CC(C5N=NC45)C32)cc1` (stereo not drawn) [drawing 402], the Plant height in the assay with tomatoes (1.5 kg/ha) stood at 24.3 cm; in the assay with tomatoes (3.0 kg/ha) it was 20.3 cm; with tomatoes (6.0 kg/ha), 14.0 cm. For the same molecule, the results for the Plant height relative in the assay with tomatoes (1.5 kg/ha), in the assay with tomatoes (3.0 kg/ha) and with tomatoes (6.0 kg/ha) were 89.3, 74.6 and 51.5, respectively.
With `Brc1ccc(N2N=NC3C4CC(C5N=NC45)C32)cc1` (stereo not drawn) [drawing 403], the Plant height is recorded as 25.0 cm in the assay on tomatoes (1.5 kg/ha), 22.7 cm with tomatoes (3.0 kg/ha) and 15.3 cm with tomatoes (6.0 kg/ha). For the same molecule, the results for the Plant height relative in the assay with tomatoes (1.5 kg/ha), in the assay on tomatoes (3.0 kg/ha) and in the assay on tomatoes (6.0 kg/ha) were 91.9, 83.5 and 56.2, respectively.
For `C=CCN(CC=C)C(=O)CCl` [drawing 425], the percentage damage with Datura stramonium (2.0 kg/ha) is given as 10 percentage damage; in the assay with Datura stramonium (4.0 kg/ha) it was 20 percentage damage; in the assay on Datura stramonium (8.0 kg/ha), 60 percentage damage. Moreover, the pest or weed control at 2000 g/ha with Alopecurus myosuroides (post-emergence, postemergence) was determined as 28%; in the assay with Alopecurus myosuroides (pre-emergence, preemergence) it was 68%. Besides, the pest or weed control at 4000 g/ha with Alopecurus myosuroides (post-emergence, postemergence) is 38%; with Alopecurus myosuroides (pre-emergence, preemergence), 85%. Also, the pest or weed control at 8000 g/ha with Alopecurus myosuroides (post-emergence, postemergence) was 35%; in the assay on Alopecurus myosuroides (pre-emergence, preemergence), 98%.
